Measured values: ChEMBL document CHEMBL5335812, “PSMA-targeted SMART molecules outfitted with SN38” (Bioorg Med Chem Lett, 2024)
Calls of active or inactive are those of the source. The rule behind the calls is not given here.

Assays:
[1] = Stability of the compound assessed as payload release at pH 5.5 measured after 18 hrs by fluorescence based analysis; assay type: physicochemical; settings: buffer, pH 5.5, 18 h
[2] = Stability of the compound assessed as payload release at pH 5.0 measured after 18 hrs by fluorescence based analysis; assay type: physicochemical; settings: buffer, pH 5, 18 h
[3] = Stability of the compound assessed as payload release at pH 7.4 measured after 18 hrs by fluorescence based analysis; assay type: physicochemical; settings: buffer, pH 7.4, 18 h
[4] = Drug metabolism in human C4-2B cells expressing PSMA assessed as payload release incubated for 30 min by confocal microscopy; assay type: ADME, cell-based; settings: lncap c4-2b, 0.5 h
PC-3 = test: Antiproliferative activity against human PC-3 cells with PSMA knockout assessed as reduction in cell viability incubated for 72 hrs by cellTiter-Glo Luminescent cell viability assay; assay type: functional, cell-based
LNCaP C4-2B = test: Antiproliferative activity against human C4-2B cells expressing PSMA assessed as reduction in cell viability incubated for 72 hrs by cellTiter-Glo Luminescent cell viability assay
[5] = Drug metabolism in human PC-3 cells with PSMA knockout assessed as intracellular SN38 release incubated for 30 min by confocal microscopy; assay type: ADME, cell-based; settings: pc-3, 0.5 h
[6] = Stability of the compound assessed as kinetic half life at pH 4.5; assay type: physicochemical; settings: buffer
[7] = Stability of the compound assessed as kinetic half life at pH 6; assay type: physicochemical; settings: buffer
[8] = Stability of the compound at pH 7.4; assay type: physicochemical; settings: buffer
[9] = Stability of the compound assessed as kinetic half life at pH 5.5; assay type: physicochemical; settings: buffer
[10] = Stability of the compound assessed as kinetic half life at pH 5; assay type: physicochemical; settings: buffer
[11] = Stability of the compound assessed as hydrolysis at pH 7.4 measured after 8 hrs by 31P NMR; assay type: physicochemical; settings: buffer, pH 7.4, 8 h

CCc1c2c(nc3ccc(O)cc13)-c1cc3c(c(=O)n1C2)COC(=O)[C@]3(O)CC [7-ETHYL-10-HYDROXYCAMPTOTHECIN]
Activity [1]: ~ 25% | Activity [2]: 25% | Stability [3]: Stable

CCc1c2c(nc3ccc(OC(=O)N(C)CCN(C)P(=O)(O)OCC[C@H](NC(=O)c4ccc(Cn5nnc6c5-c5ccccc5CN(C(=O)CCC(=O)NCCOCCOCCOCCOCCC(=O)NCCCCCC(=O)N[C@@H](CCC(=O)N[C@@H](CCCOP(=O)(O)N[C@@H](CCC(=O)O)C(=O)O)C(=O)O)C(=O)O)c5ccccc5-6)cc4)C(=O)O)cc13)-c1cc3c(c(=O)n1C2)COC(=O)[C@]3(O)CC
Drug metabolism [4]: Metabolite_Detected | Activity (PC-3): inactive | IC50 (LNCaP C4-2B): 3 nM | Drug metabolism [5]: Metabolite_Notdetected

CCc1c2c(nc3ccc(OC(=O)N(C)CCN(C)P(=O)(O)OCC[C@H](NC(=O)c4ccc(CN=[N+]=[N-])cc4)C(=O)O)cc13)-c1cc3c(c(=O)n1C2)COC(=O)[C@]3(O)CC
half-life [6]: 1.9 h | half-life [7]: 42 h | Stability [8]: Stable | half-life [9]: 11 h | half-life [10]: 4.3 h | Stability [11]: Stable
